Laboratory results taken from patent US4489091A, “Antilipemic and anti-inflammatory compositions containing sulfonate derivatives” (Taiho Pharmaceutical Company Limited, priority 1980, dated 1984).
Where two headings read alike, the source gives them in different places.

Key:
[1] = tested on: cholesterol; assay: Antilipemic effect: percent total cholesterol inhibition in plasma of rats given an olive oil-cholesterol mixture; assay type: in vivo, male Wistar rats; conditions: for inhibition in vivo at 100 mg/kg: read-out: Anti-lipemic effect, CS (percent cholesterol inhibition); for Anti-lipemic effect, CS (percent cholesterol inhibition), asterisked: oral 200 mg/kg (asterisked values)
Experimental: (§1) The above compounds of this invention are tested by the following methods for antilipemic effect and acute toxicity. In the column of antilipemic effect in the table, the asterisked values indicate the effect achieved by orally giving 200 mg/kg of the compounds concerned, and the unmarked values, the effect attained by orally giving 100 mg/kg. In the same column, "TG" stands for percent triglycerides inhibition and "CS" percent cholesterol inhibition.
(§2) Seven-week-old male Wistar rats weighing 200 to 220 g are used, 5 rats in each group.
(§3) Each compound of the invention (100 mg or 200 mg) is dissolved in 10 ml of an olive oil-cholesterol mixture (containing 15% of cholesterol). The mixture containing the compound is orally given to the rat with a probe at a dose of 10 ml/kg. Two or 8 hours thereafter, 6 ml of whole blood is withdrawn from the descending aorta of the rat under ether anesthesia with a syringe containing heparin. The blood is centrifuged at 5° C. and 3000 r.p.m. to obtain the plasma. The plasma collected after the lapse of 2 hours is used for determining the triglycerides content, and the plasma obtained 8 hours later for determining the total cholesterol content, using a triglycerides measuring kit (trade mark "Triglycerides-B Test Wako," product of Wako Junyaku Co., Ltd., Japan) and a total cholesterol measuring kit (trade mark "Cholesterol Test Wako," product of the same), respectively. The olive oil-cholesterol mixture containing no compound is similarly given to a control group, while no treatment is conducted for a normal group. The triglycerides and total cholesterol contents in the plasma are also determined for these groups in the same manner as is the case with the test groups.
(§4) The present hyperlipidemia inhibition achieved by the present compound is given by [formula] in which A is the triglycerides (cholesterol) content of the control group, B is the triglycerides (cholesterol) content of the normal group, and C is the triglycerides (cholesterol) content of the group to which the present compound is given.

[2] = Acute toxicity; conditions: rat, in vivo
Source text: Six-week-old male Wistar rats weighing 180 to 200 g are used, 5 rats in each group. Each compound of the invention is suspended in a 30% aqueous solution of polyethylene glycol 6000 and orally given to the rat at the dosage shown in Table 2. The animals are checked for poisoning, body weight and survival to determine the LD50 value.

[3] = tested on: triglycerides; assay: Antilipemic effect: percent triglycerides inhibition in plasma of rats given an olive oil-cholesterol mixture; assay type: in vivo, male Wistar rats; conditions: for inhibition in vivo at 100 mg/kg: read-out: Anti-lipemic effect, TG (percent triglycerides inhibition); for inhibition in vivo at 200 mg/kg: read-out: Anti-lipemic effect, TG (percent triglycerides inhibition), asterisked
Experimental: as §1, §2, §3, §4

[4] = oral 100 mg/kg, plasma 8 hours after dosing, Wistar rat
[5] = oral 100 mg/kg, plasma 2 hours after dosing, Wistar rat
[6] = oral, six-week-old male Wistar rats, suspended in 30% aqueous polyethylene glycol 6000, read-out: LD50
[7] = oral 200 mg/kg (asterisked values), plasma 2 hours after dosing, Wistar rat
[8] = plasma 8 hours after dosing, Wistar rat

Row | Structure (SMILES) | inhibition in vivo at 100 mg/kg [1, 4] | LD50 ([2]; po) | inhibition in vivo at 100 mg/kg [3, 5] | also measured
1 | CCCCC(CC)C(=O)COS(=O)(=O)c1ccc(C)cc1 (stereo not drawn) [Compound 26] | 72% | > 4000 mg/kg | 85% | 
2 | CCCC(=O)COS(=O)(=O)c1ccccc1C [Compound 29, 2-oxopentyl-o-toluene sulfonate] | 30% |  | 73% | LD50 [2, 6]: > 1500 mg/kg
3 | CCCCC(=O)COS(=O)(=O)c1ccccc1C [Compound 30] | 36% | > 1500 mg/kg | 70% | 
4 | CCCC(=O)COS(=O)(=O)c1ccc(OC)cc1 [Compound 34] | 68% | > 1500 mg/kg | 72% | 
5 | CCCCC(=O)COS(=O)(=O)c1ccc(OC)cc1 [Compound 35, 2-oxahexyl-p-methoxybenzene sulfonate] | 72% |  | 87% | LD50 [2, 6]: > 2000 mg/kg
6 | CCCCCC(=O)COS(=O)(=O)c1ccc(OC)cc1 [Compound 36] | 79% | > 2000 mg/kg | 78% | 
7 | COc1ccc(S(=O)(=O)OCC(=O)CCC(C)C)cc1 [Compound 40] | 70% | > 2000 mg/kg | 72% | 
8 | C=CCCC(=O)COS(=O)(=O)c1ccc(OC)cc1 [Compound 41] | 61% | > 2000 mg/kg | 82% | 
9 | CCCC(=O)COS(=O)(=O)c1ccc(OCC)cc1 [Compound 43] |  |  |  | inhibition in vivo at 100 mg/kg ([1]; Rattus norvegicus, po, 8 h): 120%; LD50 [2, 6]: > 2000 mg/kg; inhibition in vivo at 100 mg/kg ([3]; Rattus norvegicus, po, 2 h): 97%
10 | CCCCC(=O)COS(=O)(=O)c1ccc(OCC)cc1 [Compound 44] | 90% | > 2000 mg/kg | 99% | 
11 | CCCCCC(=O)COS(=O)(=O)c1ccc(OCC)cc1 [Compound 45, 2-oxoheptyl-p-ethoxybenzenesulfonate] | 80% |  | 85% | LD50 [2, 6]: > 3000 mg/kg
12 | CCCCCCC(=O)COS(=O)(=O)c1ccc(OCC)cc1 [Compound 46, 2-oxooctyl-p-ethoxybenzene sulfonate] | 62% |  | 65% | LD50 [2, 6]: > 3000 mg/kg
13 | CCCCCCCCCCC(=O)COS(=O)(=O)c1ccc(OCC)cc1 [Compound 48] | 55% | > 4000 mg/kg |  | inhibition in vivo at 200 mg/kg [3, 7]: 72%
14 | CCOc1ccc(S(=O)(=O)OCC(=O)C(C)CC)cc1 (stereo not drawn) [Compound 49] | 96% | > 2000 mg/kg | 90% | 
15 | CCOc1ccc(S(=O)(=O)OCC(=O)CCCCCCC(C)C)cc1 [Compound 51] |  |  |  | inhibition in vivo at 100 mg/kg ([1]; Rattus norvegicus, po, 8 h): 62%; LD50 [2, 6]: > 4000 mg/kg; inhibition in vivo at 200 mg/kg ([3]; Rattus norvegicus, po, 2 h): 70%
16 | C=CCCC(=O)COS(=O)(=O)c1ccc(OCC)cc1 [Compound 52] | 97% | > 2000 mg/kg | 95% | 
17 | CCCCOc1ccc(S(=O)(=O)OCC(=O)CCC)cc1 [Compound 53] |  |  |  | inhibition in vivo at 100 mg/kg ([1]; Rattus norvegicus, po, 8 h): 42%; LD50 [2, 6]: > 2000 mg/kg; inhibition in vivo at 100 mg/kg ([3]; Rattus norvegicus, po, 2 h): 61%
18 | CCCCCC(=O)COS(=O)(=O)c1ccc(OCCCC)cc1 [Compound 55] |  |  |  | Anti-lipemic effect, CS (percent cholesterol inhibition), asterisked [1, 8]: 40%; LD50 [2, 6]: > 3000 mg/kg; inhibition in vivo at 200 mg/kg ([3]; Rattus norvegicus, po, 2 h): 69%
19 | CCCC(=O)COS(=O)(=O)c1ccc(Cl)cc1 [Compound 64] | 56% | > 1000 mg/kg | 82% | 
20 | CCCCC(=O)COS(=O)(=O)c1ccc(Cl)cc1 [Compound 65] | 49% | > 1000 mg/kg | 87% | 
21 | CC(C)CCC(=O)COS(=O)(=O)c1ccc(Cl)cc1 [Compound 70] | 47% | > 2000 mg/kg | 82% | 
22 | CCC(=O)COS(=O)(=O)c1c(C)cc(C)cc1C [Compound 72] | 90% | > 3000 mg/kg | 91% | 
23 | CCCCC(=O)COS(=O)(=O)c1c(C)cc(C)cc1C [Compound 74] | 87% | > 3000 mg/kg | 77% | 

Row | Structure (SMILES) | inhibition in vivo at 100 mg/kg [1, 4] | LD50 ([2]; po) | inhibition in vivo at 100 mg/kg [3, 5] | also measured
24 | CCCCCC(=O)COS(=O)(=O)c1c(C)cc(C)cc1C [Compound 75] | 60% | > 3000 mg/kg | 53% | 
25 | CCCCCCC(=O)COS(=O)(=O)c1c(C)cc(C)cc1C [Compound 76] | 62% | > 4000 mg/kg | 55% | 
26 | CCCCCCCC(=O)COS(=O)(=O)c1c(C)cc(C)cc1C [Compound 77, 2-oxononanyl-2,4,6-trimethylbenzene sulfonate] | 74% |  | 80% | LD50 [2, 6]: > 4000 mg/kg
27 | Cc1cc(C)c(S(=O)(=O)OCC(=O)CC(C)(C)C)c(C)c1 [Compound 82] | 66% | > 3000 mg/kg | 56% | 
28 | Cc1cc(C)c(S(=O)(=O)OCC(=O)CCC(C)C)c(C)c1 [Compound 83] | 71% | > 3000 mg/kg | 68% | 
29 | CCCC(=O)COS(=O)(=O)c1c(C)cc(C)c(C)c1C [Compound 95, 2-oxopentyl-2,3,4,6-tetramethylbenzene sulfonate] | 97% |  | 96% | LD50 [2, 6]: > 3000 mg/kg
30 | CCCCCCC(=O)COS(=O)(=O)c1c(C)cc(C)c(C)c1C [Compound 97] | 47% | > 3000 mg/kg | 55% | 
31 | CCC(C)C(=O)COS(=O)(=O)c1c(C)cc(C)c(C)c1C (stereo not drawn) [Compound 99] | 78% | > 3000 mg/kg | 72% | 
32 | CCCCC(CC)C(=O)COS(=O)(=O)c1c(C)cc(C)c(C)c1C (stereo not drawn) [Compound 100] |  | > 4000 mg/kg |  | Anti-lipemic effect, CS (percent cholesterol inhibition), asterisked [1, 8]: 42%; inhibition in vivo at 200 mg/kg [3, 7]: 66%
33 | CCCC(=O)COS(=O)(=O)c1ccc(C)cc1C [Compound 112] | 62% | > 2000 mg/kg | 80% | 
34 | CCCC(=O)COS(=O)(=O)c1c(CC)cc(CC)cc1CC [Compound 114] | 76% | > 3000 mg/kg | 87% | 
35 | CCCC(=O)COS(=O)(=O)c1ccc(C)c(C)c1C [Compound 117] | 71% | > 2000 mg/kg | 70% | 
36 | CCC(CC)C(=O)COS(=O)(=O)c1ccc(C)cc1 [Compound 121] | 66% | > 3000 mg/kg | 63% | 
37 | CCCC(C)C(=O)COS(=O)(=O)c1ccc(C)cc1 (stereo not drawn) [Compound 122] | 51% | > 3000 mg/kg | 65% | 
38 | CCCC(CC)C(=O)COS(=O)(=O)c1ccc(C)cc1 (stereo not drawn) [Compound 123] | 60% | > 3000 mg/kg | 67% | 
39 | CCCC(CCC)C(=O)COS(=O)(=O)c1ccc(C)cc1 [Compound 124] | 42% | > 3000 mg/kg | 62% | 
40 | CCC(C)CC(=O)COS(=O)(=O)c1ccc(C)cc1 (stereo not drawn) [Compound 125] | 44% | > 3000 mg/kg | 68% | 
41 | Cc1ccc(S(=O)(=O)OCC(=O)CCC(C)C)cc1 [Compound 126] | 47% | > 3000 mg/kg | 61% | 
42 | CCCCC(C)C(=O)COS(=O)(=O)c1ccc(C)cc1 (stereo not drawn) [Compound 127] | 67% | > 3000 mg/kg | 92% | 
43 | CCCCC(CCC)C(=O)COS(=O)(=O)c1ccc(C)cc1 (stereo not drawn) [Compound 128] | 51% | > 3000 mg/kg | 62% | 
44 | CCOc1ccc(S(=O)(=O)OCC(=O)C(CC)CC)cc1 [Compound 131] | 97% | > 2000 mg/kg | 110% | 
45 | CCOc1ccc(S(=O)(=O)OCC(=O)CC(C)C)cc1 [Compound 132] | 90% | > 2000 mg/kg | 87% | 
